System: human mesenchymal stem cells (MeSCs)
Assay: Cardiac differentiation of human MeSCs in co-culture with cardiomyocytes (H9c2), RT-PCR with cardiac specific primers
Type: cell-based
Conditions: BrdU and/or 5-azaC 1-10 uM for 3 weeks, or nanog vector transfection; then co-culture with cardiomyocytes
Text: Cardiac differentiation of human mesenchymal stem cells (MeSCs) is achieved through treatment with nucleotide derivatives BrdU and 5-azaC and/or forced expression of embryonic stem cell gene nanog. Following treatment, cells were placed in a co-culture with cardiac cells (cardiomyocyte cell line H9c2). Human MeSCs plated in 6-well culture plates and expanded in serum-DMEM (Delbecco's Modified Eagle's Medium) containing 10% MeSC formulated fetal bovine serum (FBS, Stem Cell, Inc) containing antibiotics/antimycotics. MeSCs were treated with varying concentrations (1-10 uM) of BrdU and/or 5-azaC for 3 weeks or transfected with mammalian expression vector containing a nanog encoding sequence. Cell media was changed every three days prior to co-culture with cardiomyocytes. Cardiomyocytes were expanded and grown to near confluence in serum-DMEM with 10% non-conditioned FBS and antibiotics/antimycotics. To differentiate cardiac cells, serum media was replaced with plain DMEM containing only antibiotics and allowed to differentiate. Co-cultures were created by combining MeSCs with cardiac cells and culturing in cardiac media. Following co-culture, cells were treated with TRIzol and gene expression was assessed using RT-PCR and cardiac specific primers. […]

Row | SMILES | expression of cardiac specific genes (RT-PCR, gel electrophoresis)
1 | Nc1ncn([C@@H]2O[C@H](CO)[C@@H](O)[C@H]2O)c(=O)n1 [5-azaC] | expression of cardiac specific genes
2 | O=c1[nH]c(=O)n([C@H]2C[C@H](O)[C@@H](CO)O2)cc1Br [BrdU] | expression of cardiac specific genes
